From patent EP0417637A2, “Use of dopamine autoreceptor agonists in the treatment of drug dependency” (BOEHRINGER INGELHEIM KG, priority 1989, dated 1991)
Where two headings read alike, the source gives them in different places.

Experiments:
Affen [1] = experiment: Test 2: intravenous self-administration in monkeys receiving cocaine infusions (analogous to Test 1); conditions: BHT 920 0,001, 0,003 and 0,01 mg/kg/Injektion or cocaine; 3 monkeys, each dose available for 25 min or 20 infusions
[2] = Extensive animal tests on abuse potential (no method given); format: in vivo
From the text: Das ist für die Therapie von großer Bedeutung.

Affen [3] = experiment: Test 1: intravenous self-administration in monkeys experienced with sodium methohexital and saline; conditions: for Anzahl der Selbstinjektionen: average values, 3 monkeys, sessions of 130 min
drogenabhängigen Affen = experiment: Test 3: effect of BHT 920 on cocaine or alfentanil self-administration in drug-dependent monkeys; format: in vivo
Protocol: Nach Durchführung des Tests Nr. […] In weiteren analogen Versuchen (siehe beiliegende graphische Darstellungen für Affe 1, Affe 2 und Affe 3) wurde den drogenabhängigen Affen BHT 920 in 2 Dosen (0,01 und 0,1 mg/kg/Injektion) gleichzeitig zu steigenden Dosen von Kokain (2 Tiere) beziehungsweise Alfentanil (1 Tier) angeboten. […] Auch sehr hohe Dosen der suchterzeugenden Droge konnten diese Wirkung von BHT 920 nicht aufheben. Aufgrund von Verhaltensbeobachtungen während der oben beschriebenen Tests kann gesagt werden, daß die hemmende Wirkung von BHT 920 nicht durch eine allgemeine Sedation erklärt werden kann. Daraus kann geschlossen werden, daß die Verabreichung von BHT 920 das Bedürfnis nach Kokain mindert und die psychische Abhängigkeit von der Droge durchbricht.

Affen [4] = conditions: in vivo

| Structure (SMILES) | Reaktionshäufigkeit (Affen [1]) | Mißbrauchspotential [2] | Anzahl der Selbstinjektionen (Affen [3]; 0,01 mg BHT 920/kg/Injektion i.v.) | Anzahl der Selbstinjektionen (Affen [3]; 0,05 mg BHT 920/kg/Injektion i.v.) | Anzahl der Selbstinjektionen (Affen [3]; 0,0001 mg BHT 920/kg/Injektion i.v.) | Anzahl der Selbstinjektionen (Affen [3]; 0,001 mg BHT 920/kg/Injektion i.v.) | Reinforcement (Affen [3]; at the doses used) | Anzahl der genommenen Injektionen der Testsubstanz (Affen [3]; four doses, each tested twice in each monkey, compared with saline and methohexital) | Kokain - beziehungsweise Alfentanil - Selbstadministrationsrate (drogenabhängigen Affen; BHT 920 high dose 0,1 mg/kg/Injektion given together with rising doses of cocaine (2 animals) or alfentanil (1 animal)) | Kokain - beziehungsweise Alfentanil - Selbstadministrationsrate (drogenabhängigen Affen; BHT 920 lower dose 0,01 mg/kg/Injektion given together with rising doses of cocaine (2 animals) or alfentanil (1 animal)) | durch Kokain verursachte Reaktionshäufigkeit (drogenabhängigen Affen; session following administration of BHT 920, in 2 of 3 animals, compared with cocaine in Test 2) | Reaktionshäufigkeit (Affen [4]) |
| --- | --- | --- | --- | --- | --- | --- | --- | --- | --- | --- | --- | --- |
| C=CCN1CCc2nc(N)sc2CC1 [BHT 920, 6-Allyl-2-amino-5,6,7,8-tetrahydro-4H-thiazolo[4,5-d]azepin] | in dem Bereich lag, der auch bei Kochsalzlösung beobachtet wurde | kein Mißbrauchspotential | 10 | 18 | 21 | 19 | kein Reinforcement | nicht höher als die Anzahl der genommenen Injektionen von Kochsalzlösung | auf Null sinken | deutlichen Abnahme | wesentlich unter der in Test 2 für Kokain beobachtete Reaktionshäufigkeit |  |
| COC(=O)[C@H]1[C@@H](OC(=O)c2ccccc2)C[C@@H]2CC[C@H]1N2C [Kokain] |  |  |  |  |  |  |  |  |  |  |  | dosenabhängige Erhöhung der Reaktionshäufigkeit |
| CCCN[C@H]1CCc2nc(N)sc2C1 [SND 919, (S)-2-Amino-4,5,6,7-tetrahydro-6-n-propylamino-benzothiazol] |  | kein Mißbrauchspotential |  |  |  |  |  |  |  |  |  |  |
